Source: the supplement of paper PMC10307832

How the values were obtained:
Assay in all cases: relative viability (nuclei count vs DMSO), 5 days (fraction); higher = more cells survive
[1] = compound: Cc1nc(C(=O)NCC(=O)O)c(O)c2ccc(Oc3ccccc3)cc12 [FG-4592] + Cc1nc(Nc2ncc(C(=O)Nc3c(C)cccc3Cl)s2)cc(N2CCN(CCO)CC2)n1 [Dasatinib] (partner 0.075 µM)
How it was run: (§1)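 Nuclei were stained with Hoechst during a one-step fixation (final 0.05% Triton X-100, 1% formaldehyde, 1 ug/ml Hoechst) carried out 5 days after dosing, then counted on 4× images. The cells, lung cancer lines in 1536-well plates, had been dosed by pin tool the day after seeding with one drug alone or a fixed anchor-drug dose plus five library-drug doses (not always all listed) in √10 steps. Relative viability is the nuclei count in treated wells divided by that in vehicle wells, and each value is the median of duplicate plates.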

[2] = compound: CC1=CC(=C(N1C2=CC=C(C=C2)Cl)C)C(=O)CN3CCCCC3 [IU1-47] + C[C@@H](Oc1cc(-c2cnn(C3CCNCC3)c2)cnc1N)c1c(Cl)ccc(F)c1Cl [Crizotinib] (partner 1 µM)
How it was run: as §1

[3] = compound: Cc1nc(C(=O)NCC(=O)O)c(O)c2ccc(Oc3ccccc3)cc12 [FG-4592] + CC1(C)CCC(c2ccc(Cl)cc2)=C(CN2CCN(c3ccc(C(=O)NS(=O)(=O)c4ccc(N[C@H](CCN5CCOCC5)CSc5ccccc5)c(S(=O)(=O)C(F)(F)F)c4)cc3)CC2)C1 [Navitoclax] (partner 0.5 µM)
How it was run: as §1

[4] = compound: Cc1nc(C(=O)NCC(=O)O)c(O)c2ccc(Oc3ccccc3)cc12 [FG-4592] + CCNC(=O)c1noc(-c2cc(C(C)C)c(O)cc2O)c1-c1ccc(CN2CCOCC2)cc1 [Luminespib] (partner 0.01 µM)
How it was run: as §1

Cell Line	relative viability ([1]; first compound 0.08 µM)	relative viability ([1]; first compound 0.253 µM)	relative viability ([1]; first compound 0.8 µM)	relative viability ([1]; first compound 2.53 µM)	relative viability ([1]; first compound 8 µM)	relative viability ([2]; first compound 0.08 µM)	relative viability ([2]; first compound 0.253 µM)	relative viability ([2]; first compound 0.8 µM)	relative viability ([2]; first compound 2.53 µM)	relative viability ([2]; first compound 8 µM)	relative viability ([3]; first compound 0.08 µM)	relative viability ([3]; first compound 0.253 µM)	relative viability ([3]; first compound 0.8 µM)	relative viability ([3]; first compound 2.53 µM)	relative viability ([3]; first compound 8 µM)	relative viability ([4]; first compound 0.08 µM)	relative viability ([4]; first compound 0.253 µM)	relative viability ([4]; first compound 0.8 µM)	relative viability ([4]; first compound 2.53 µM)	relative viability ([4]; first compound 8 µM)
LOU-NH91	0.554	0.521	0.512	0.559	0.533	0.739	0.808	0.733	0.708	0.769	0.709	0.624	0.635	0.711	0.617	0.275	0.342	0.299	0.325	0.367
NCI-H358	0.16	0.19	0.162	0.145	0.156	0.532	0.607	0.516	–	0.495	–	–	–	–	–	0.311	0.36	0.426	0.395	0.238
NCI-H522	0.887	0.892	0.801	0.843	0.829	–	–	–	–	–	–	–	–	–	–	0.895	1.22	1.18	1.01	1.08
NCI-H650	0.464	0.491	0.393	0.407	0.392	0.685	0.788	0.695	0.71	0.648	–	–	–	–	–	0.766	0.797	0.597	0.746	0.713
NCI-H661	0.983	0.825	0.874	0.827	0.835	1.21	0.975	0.981	1.06	1.12	–	–	–	–	–	0.94	0.888	0.961	0.863	0.951
NCI-H1299	–	–	–	–	–	0.965	0.93	0.977	0.972	0.834	1.07	1.03	1.02	1.02	1.1	–	–	–	–	–
NCI-H1395	0.446	0.416	0.373	0.364	0.365	–	–	–	–	–	1.37	1.01	–	1.02	0.958	0.34	0.685	0.583	0.61	0.753
NCI-H1563	0.465	0.465	0.397	0.466	0.44	0.877	0.791	0.882	0.86	0.802	–	–	–	–	–	0.552	0.528	0.537	0.534	0.535
NCI-H1623	0.505	0.555	0.446	0.486	0.468	–	–	–	–	–	–	–	–	–	–	0.466	0.547	0.409	0.492	0.415
NCI-H1703	–	–	–	–	–	0.524	0.917	0.426	1.15	1.11	1.01	0.862	1.16	1.13	1.02	–	–	–	–	–
NCI-H1793	0.37	0.311	–	0.354	0.328	–	–	–	–	–	0.335	0.384	–	0.291	0.238	0.155	0.227	–	0.157	0.185
NCI-H2342	0.312	0.281	0.316	0.341	0.311	–	–	–	–	–	–	–	–	–	–	0.674	0.71	0.576	0.783	0.537
SW 900	0.889	0.57	0.444	0.55	0.461	–	–	–	–	–	–	–	–	–	–	0.168	0.167	0.174	0.174	0.165
